# Test results as given in patent US20220296722A1, “CONJUGATES AND CONJUGATES FOR USE IN PREVENTING OR TREATING OF BRAIN DAMAGE AND NEURODEGENERATIVE DISEASES” (MEDICORTEX FINLAND OY, priority 2019, published 2022).
# Assays:
# [1] = Modified Irwin procedure: overt behavioural and physiological parameters after a single intraperitoneal dose; type: in vivo, Male CD-1 (ICR) mice; conditions: for behavioural or physiological changes (modified Irwin): single dose, 3 mice, assessed 0.25-24 h
# Method: (§1) MCF-013 was formulated as a clear solution by dissolving in 10% final volume ethanol and then making up to full volume with saline at concentrations of 0.1, 0.3, 1 and 4 mg provided material/mL. This provided doses of 1, 3, 10 and 40 mg provided material/kg when administered intraperitoneally in 10 ml/kg dosing volumes.
# (§2) Male CD-1 (ICR) mice were acclimatised to the procedure room. Groups of 3 mice were administered with vehicle (ethanol:saline) [10:90], or MCF-013 at 1, 3, 10 or 40 mg/kg intraperitoneally in 10 mL/kg dosing volumes. Doses were administered in an escalating dose order. […] These tissues were then excised and weighed and any with overt macroscopic abnormalities were to be placed in 10 volumes neutral buffered formalin solution (Sigma Cat no: HT501128).
# [2] = Gross macroscopic examination and weighing of major organs at 24 h after dosing; type: in vivo, Male CD-1 (ICR) mice
# Method: as §1, §2
compound,measurement,setting,value
"O=C(Nc1ccccc1OCCOc1ccc(O)c(O)c1OC[C@H]1O[C@@H](O)[C@H](O)[C@@H](O)[C@@H]1O)c1cccc(O)c1O [MCF-013, N-{o-[2-(2-{[(2R,3S,4S,5R,6R)-3,4,5,6-Tetrahydroxytetrahydro-2Hpyran-2-yl]methoxy}-3,4-dihydroxyphenoxy)ethoxy]phenyl}2,3-dihydroxybenzamide]",behavioural or physiological changes (modified Irwin),[1]; 1 mg/kg intraperitoneally,"One of three mice (No. 6) showed slight hunched posture at 0.5 and 1h, and slight piloerection 0.5 h after dosing"
same,behavioural or physiological changes (modified Irwin),[1]; 3 mg/kg intraperitoneally,One of three animals (mouse 9) showed slight hunched posture at 0.25 h after dosing
same,behavioural or physiological changes (modified Irwin),[1]; 10 mg/kg intraperitoneally,no behavioural or physiological changes were noted
same,behavioural or physiological changes (modified Irwin),[1]; 40 mg/kg intraperitoneally,no behavioural or physiological changes were noted
same,tolerability over a 24 h period,"[1]; 1, 3, 10 and 40 mg provided material/kg intraperitoneally, mice, compared with ethanol:saline [10:90] vehicle",well tolerated
same,gross macroscopic examination of the major organs,[2]; 1 mg/kg intraperitoneally,caecum of mouse 6 was noted to be slightly distended with air
same,organ weights,[2]; 1 mg/kg intraperitoneally,normal
same,gross macroscopic examination of the major organs,[2]; 3 mg/kg intraperitoneally,no abnormalities
same,organ weights,[2]; 3 mg/kg intraperitoneally,normal
same,gross macroscopic examination of the major organs,[2]; 10 mg/kg intraperitoneally,no abnormalities
same,organ weights,[2]; 10 mg/kg intraperitoneally,normal
same,gross macroscopic examination of the major organs,[2]; 40 mg/kg intraperitoneally,no abnormalities
same,organ weights,[2]; 40 mg/kg intraperitoneally,normal
